Results taken from ChEMBL document CHEMBL1156879, “Ganodermasides A and B, two novel anti-aging ergosterols from spores of a medicinal mushroom Ganoderma lucidum on yeast via UTH1 gene” (Bioorg Med Chem, 2010).
Calls of active or inactive are those of the source. No cut-off for these calls is given here.

How the values were obtained:
Assay type in all cases: functional, organism-based
Saccharomyces cerevisiae [1] = test: Antiaging effect in Saccharomyces cerevisiae K6001 assessed as extension of replicative life span at 10 uM after 2 days
Saccharomyces cerevisiae [2] = test: Effect on SOD1 gene expression in Saccharomyces cerevisiae K6001 at 10 uM by RT-PCR
Saccharomyces cerevisiae [3] = test: Effect on SOD2 gene expression in Saccharomyces cerevisiae K6001 at 10 uM by RT-PCR
Saccharomyces cerevisiae [4] = test: Effect on SIRT1 expression in Saccharomyces cerevisiae K6001 by SIRT1/Sir2 deacetylase fluorometric assay
Saccharomyces cerevisiae [5] = test: Antiaging effect in Saccharomyces cerevisiae K6001 expressing uth1 mutant assessed as extension of replicative life span after 2 days
Saccharomyces cerevisiae [6] = test: Antiaging effect in Saccharomyces cerevisiae K6001 expressing skn7 mutant assessed as extension of replicative life span after 2 days
Saccharomyces cerevisiae [7] = test: Antiaging effect in Saccharomyces cerevisiae K6001 assessed as extension of replicative life span after 2 days

| SMILES | Activity (Saccharomyces cerevisiae [1]) | Activity (Saccharomyces cerevisiae [2]) | Activity (Saccharomyces cerevisiae [3]) | Activity (Saccharomyces cerevisiae [4]) | Activity (Saccharomyces cerevisiae [5]) | Activity (Saccharomyces cerevisiae [6]) | Activity (Saccharomyces cerevisiae [7]) |
| --- | --- | --- | --- | --- | --- | --- | --- |
| CC(C)[C@@H](C)/C=C/[C@@H](C)[C@H]1C[C@H](O)C2=C3C=CC4=CC(=O)CC[C@]4(C)C3CC[C@@]21C (some centres undefined) | Active | inactive | inactive | inactive | inactive | inactive | – |
| Oc1ccc(/C=C/c2cc(O)cc(O)c2)cc1 | Active | – | – | – | – | – | Dose-dependent effect |
| CC(C)[C@@H](C)/C=C/[C@@H](C)[C@H]1C[C@@H](O)C2=C3C=CC4=CC(=O)CC[C@]4(C)C3CC[C@@]21C (some centres undefined) | Active | inactive | inactive | inactive | inactive | inactive | – |
